Laboratory results reported in patent US12421199B2, “Sphingosine 1 phosphate receptor modulators” (RECEPTOS LLC, priority 2020, dated 2025).

Tests used:
S1P5 = target: T1, S1P5 (Homo sapiens, UniProt Q9H228); test: [35S]-GTPγS binding assay, S1P5; format: biochemical; details: CHO-S1P receptor membranes; for Emax: control S1P, read-out: S1P5 % Efficacy
T1 construct: expressed in transfected cells; host or cells: CHO cell membranes
Experimental: (§1) Binding assays for [35S]-GTPTS were performed in 96-well non-binding surface plates with a final volume of 200 μL. The test compounds were serial diluted in DMSO and added to assay plates using a Tecan D300E digital printer with a total volume of 0.4 μL. The control sphingosine-1-phosphate (S1P) was prepared separately by preparing a 400 μM stock solution from a 100 nmol pellet of S1P in 10 mM Na2CO3 with 2% […]. The serial dilution of S1P was done using complete assay buffer (20 mM HEPES, 10 mM MgCl2, 100 mM NaCl, 1 mM EDTA, 0.1% fatty acid free bovine serum albumin [BSA], and 30 μg/mL saponin, pH7.4) and transferred to wells already containing 0.4 μL DMSO. All the wells were then loaded to a total volume of 40 μL of complete assay buffer, except the non-specific binding (NSB) wells. For NSB wells, 40 µL/well of 50 μM GTPTS (Sigma Aldrich, cat #G8634, St. Louis, MO) was added to wells containing 0.4 μL of DMSO. The assay was started by the addition of 120 μL/well of CHO-S1P receptor membrane solution containing 40 μg/mL of membrane protein, 16.67 μM guanosine diphosphate (GDP; Sigma Aldrich, cat #G7127, St. Louis, MO), and 2.5 mg/mL of WGA PVT SPA beads in complete buffer. Assay plates were then sealed and incubated at room temperature with gentle agitation for 30 minutes. Next, 40 μL/well of 1 nM of [^35S]-GTPTS (PerkinElmer, cat #NEG030X250UC, Waltham, MA) in basic assay buffer (20 mM HEPES, 10 mM MgCl2, 100 mM NaCl, and 1 mM EDTA, pH7.4) was added to the assay plates to yield a final concentration of […] and the plates were further incubated for 40 minutes at room temperature with gentle agitation. The assay was terminated by centrifugation of the plates at 1000 rpm for 3 minutes using an Eppendorf 5810R centrifuge (Eppendorf, Hamburg, Germany) and G protein bound radioactivity was quantitated using a MicroBeta2 microplate scintillation counter (PerkinElmer, Waltham, MA).

S1P1 = target: T2, S1P1 (Homo sapiens, UniProt P21453); test: [35S]-GTPγS binding assay, S1P1; format: biochemical; details: CHO-S1P receptor membranes; for Emax: control S1P, read-out: S1P1 % Efficacy
T2 construct: expressed in transfected cells; host or cells: CHO cell membranes
T2 sequence (P21453 whole entry, species assumed): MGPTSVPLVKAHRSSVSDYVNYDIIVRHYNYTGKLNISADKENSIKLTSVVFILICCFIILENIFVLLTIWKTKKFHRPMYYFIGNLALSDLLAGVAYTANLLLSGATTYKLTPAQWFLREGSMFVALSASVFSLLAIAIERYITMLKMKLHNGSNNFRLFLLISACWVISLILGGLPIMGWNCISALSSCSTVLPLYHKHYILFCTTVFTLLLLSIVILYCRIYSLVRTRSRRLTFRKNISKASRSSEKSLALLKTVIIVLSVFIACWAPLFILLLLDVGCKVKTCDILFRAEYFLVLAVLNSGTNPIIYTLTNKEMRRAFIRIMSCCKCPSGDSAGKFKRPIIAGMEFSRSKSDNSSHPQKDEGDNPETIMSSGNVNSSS
Experimental: as §1

T1 sequence (Q9H228 whole entry, species assumed): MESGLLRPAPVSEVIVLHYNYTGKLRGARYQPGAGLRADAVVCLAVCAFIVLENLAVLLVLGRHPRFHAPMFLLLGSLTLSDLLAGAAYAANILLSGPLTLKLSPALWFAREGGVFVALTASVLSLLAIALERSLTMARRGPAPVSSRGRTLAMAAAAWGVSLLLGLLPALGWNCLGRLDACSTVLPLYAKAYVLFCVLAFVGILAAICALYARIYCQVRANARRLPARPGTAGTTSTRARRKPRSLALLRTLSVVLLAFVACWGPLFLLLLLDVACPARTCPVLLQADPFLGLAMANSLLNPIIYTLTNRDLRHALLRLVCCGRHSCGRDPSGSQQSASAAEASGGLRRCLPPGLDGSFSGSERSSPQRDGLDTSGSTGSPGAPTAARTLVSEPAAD

| SMILES | EC50 (S1P5) [nM] | Emax (S1P5) [%] | EC50 (S1P1) [nM] | Emax (S1P1) [%] |
| --- | --- | --- | --- | --- |
| CC(C)Oc1ccc(-c2nc(-c3cccc4c3CCC4(O)C(C)C)no2)cc1C#N (centres unmarked) [compound 4, 5-(3-(1-hydroxy-1-isopropyl-2,3-dihydro-1H-inden-4-yl)-1,2,4-oxadiazol-5-yl)-2-isopropoxybenzonitrile] | 77 | 74 | 7 | 97 |
| CCC1(O)CCc2c(-c3noc(-c4ccc(OC(C)C)c(C#N)c4)n3)cccc21 (centres unmarked) [compound 3, 5-(3-(1-ethyl-1-hydroxy-2,3-dihydro-1H-inden-4-yl)-1,2,4-oxadiazol-5-yl)-2-isopropoxybenzonitrile] | 147 | 80 | 14 | 97 |
